Laboratory results from ChEMBL document CHEMBL5729478, “Alpha-5 beta-1 inhibitors” (2022).

Each molecule was assayed against Integrin alpha-5/beta-1 (Homo sapiens, UniProt P05556+P08648) (assay: Cell Adhesion Assay: Evaluation of cell attachment to extracellular matrix proteins was performed as previously described by Yokosaki et al, J. Biol. Chem., 271: (39): 24144-24150 (1996). Briefly, wells of non-tissue culture-treated polystyrene 96-well flat-bottom microtiter plates (Linbro/Titertek, Flow Laboratories, McLean, Va.) were coated by incubation with 100 μl of each substrate in PBS at 37° C. for 1 hour. 96-well flat-bottomed tissue culture plates were coated with human plasma fibronectin for 1 hour at 37° C. After incubation, wells were washed with PBS, then blocked with 1% bovine serum albumin (BSA) for one hour. Control wells were filled with 1% BSA. SW480 cells were detached using 10 mM EDTA and resuspended in serum-free DMEM. For blocking experiments, cells were incubated with 10 μg/ml of the antibody for 15 minutes at 4° C. before plating. The plates were centrifuged at 10 g for 5 minutes before incubation for 1 hour at 37° C. in humidified 5% CO2. Nonadherent cells were removed by centrifugation (top side down) at 10 g for 5 minutes. Attached cells were stained with 0.5% crystal violet, and the wells were washed with PBS. The relative number of cells in each well was evaluated after solubilization in 40 μl of 2% Triton X-100 by measuring absorbance at 595 nm in a microplate reader. All determinations were carried out in triplicate.).
Chain of Integrin alpha-5/beta-1 (P05556 21-798 limits assumed): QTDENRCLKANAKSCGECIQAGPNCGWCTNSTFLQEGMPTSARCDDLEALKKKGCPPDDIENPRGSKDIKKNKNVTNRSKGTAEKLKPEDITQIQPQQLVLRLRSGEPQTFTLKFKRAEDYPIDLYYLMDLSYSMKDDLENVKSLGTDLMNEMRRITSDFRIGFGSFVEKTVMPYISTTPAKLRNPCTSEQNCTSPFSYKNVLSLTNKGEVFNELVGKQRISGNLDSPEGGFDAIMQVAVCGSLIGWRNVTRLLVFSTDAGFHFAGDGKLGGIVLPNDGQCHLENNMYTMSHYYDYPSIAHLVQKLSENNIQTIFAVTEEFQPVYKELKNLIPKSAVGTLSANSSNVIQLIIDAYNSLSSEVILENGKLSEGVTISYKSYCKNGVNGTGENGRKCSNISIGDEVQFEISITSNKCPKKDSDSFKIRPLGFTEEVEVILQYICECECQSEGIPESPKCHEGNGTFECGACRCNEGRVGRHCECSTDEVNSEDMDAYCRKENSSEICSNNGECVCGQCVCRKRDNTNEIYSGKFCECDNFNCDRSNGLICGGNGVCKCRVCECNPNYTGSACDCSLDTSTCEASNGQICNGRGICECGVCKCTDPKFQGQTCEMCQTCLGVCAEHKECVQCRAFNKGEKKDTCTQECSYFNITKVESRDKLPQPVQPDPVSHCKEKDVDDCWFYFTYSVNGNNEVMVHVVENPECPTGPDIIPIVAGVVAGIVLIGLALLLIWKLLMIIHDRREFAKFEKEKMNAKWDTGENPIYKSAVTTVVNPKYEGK
Chain of Integrin alpha-5/beta-1 (P08648 42-894 limits assumed): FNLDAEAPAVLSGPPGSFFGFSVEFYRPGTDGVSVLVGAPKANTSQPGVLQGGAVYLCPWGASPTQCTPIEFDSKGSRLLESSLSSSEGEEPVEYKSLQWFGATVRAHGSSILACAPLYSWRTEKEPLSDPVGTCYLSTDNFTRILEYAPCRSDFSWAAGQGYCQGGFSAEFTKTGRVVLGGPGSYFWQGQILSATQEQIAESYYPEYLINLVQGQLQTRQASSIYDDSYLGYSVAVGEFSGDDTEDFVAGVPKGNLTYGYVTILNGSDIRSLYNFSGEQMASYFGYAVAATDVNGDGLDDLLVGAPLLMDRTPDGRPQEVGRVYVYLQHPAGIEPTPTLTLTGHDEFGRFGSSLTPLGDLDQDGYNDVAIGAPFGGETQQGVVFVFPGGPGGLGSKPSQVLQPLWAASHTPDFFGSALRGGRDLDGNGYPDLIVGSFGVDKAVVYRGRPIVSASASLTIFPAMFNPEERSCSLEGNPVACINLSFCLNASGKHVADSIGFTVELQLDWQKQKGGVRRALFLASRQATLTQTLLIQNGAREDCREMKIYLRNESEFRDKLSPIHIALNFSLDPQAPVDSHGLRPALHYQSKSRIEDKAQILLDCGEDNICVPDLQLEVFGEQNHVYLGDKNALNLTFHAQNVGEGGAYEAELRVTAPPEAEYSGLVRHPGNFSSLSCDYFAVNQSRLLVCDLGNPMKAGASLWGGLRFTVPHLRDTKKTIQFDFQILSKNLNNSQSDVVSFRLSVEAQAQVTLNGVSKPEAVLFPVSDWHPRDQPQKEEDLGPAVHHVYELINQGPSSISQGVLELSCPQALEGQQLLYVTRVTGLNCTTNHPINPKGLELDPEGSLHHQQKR
Chain of Integrin alpha-5/beta-1 (P08648 895-1049 limits assumed): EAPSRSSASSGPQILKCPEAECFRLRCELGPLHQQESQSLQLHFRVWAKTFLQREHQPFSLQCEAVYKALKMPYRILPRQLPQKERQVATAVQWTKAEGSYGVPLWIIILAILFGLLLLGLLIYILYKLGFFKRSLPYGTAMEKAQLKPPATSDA

IC50, < 100 nM:
O=C(CNC(=O)c1cccc(NC2=NCC(O)CN2)c1)NC[C@H](NC(=O)c1c(Cl)cc(-c2ccccc2)cc1Cl)C(=O)O (stereo partly drawn), N#Cc1cc(NC(=N)N)cc(C(=O)NCC(=O)NC[C@H](NC(=O)c2c(Cl)cc(-c3ccccc3)cc2Cl)C(=O)O)c1, O=C(CNC(=O)c1cccc(NC2=NCCCO2)c1)NC[C@H](NC(=O)c1c(Cl)cc(-c2ccccc2)cc1Cl)C(=O)O
